Measurements reported in patent US10100372B2, “Recombinant RSV reporter virus” (priority 2014, dated 2018).

Experiments:
recRSV A2-L19F-renilla = assay: microbe, parasite or virus in culture; assay type: cell-based; details: human respiratory syncytial virus; 0.5 μM concentration counterscreens; read-out: RSV inhibition
RSV F protein [1] = biological target: T1, RSV F protein (Human respiratory syncytial virus, UniProt P12568, E66K/H515N/I79M/K191R/N371Y/N80K/T101P/T357K/V557I); assay type: cell-based
T1 construct: expressed in transfected cells; host or cells: HEp-2 cells infected with recRSV A2-L19F-mKate2; F is expressed from the viral genome, not from a plasmid
T1 sequence (P12568 137-574, looked up, stated change not applied): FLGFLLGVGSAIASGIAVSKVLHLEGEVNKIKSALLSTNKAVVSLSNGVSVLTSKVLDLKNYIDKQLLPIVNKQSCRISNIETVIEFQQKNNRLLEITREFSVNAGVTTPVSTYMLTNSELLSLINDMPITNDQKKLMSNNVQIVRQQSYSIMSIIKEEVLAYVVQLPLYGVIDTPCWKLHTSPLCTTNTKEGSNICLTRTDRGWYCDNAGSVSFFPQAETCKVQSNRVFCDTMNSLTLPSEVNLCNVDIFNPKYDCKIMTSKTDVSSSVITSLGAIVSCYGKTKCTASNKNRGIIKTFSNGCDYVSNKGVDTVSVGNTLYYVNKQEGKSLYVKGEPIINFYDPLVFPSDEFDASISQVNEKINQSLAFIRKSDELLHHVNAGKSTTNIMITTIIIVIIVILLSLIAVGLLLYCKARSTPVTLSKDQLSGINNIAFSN
T1 sequence (P12568 26-109, looked up, stated change not applied): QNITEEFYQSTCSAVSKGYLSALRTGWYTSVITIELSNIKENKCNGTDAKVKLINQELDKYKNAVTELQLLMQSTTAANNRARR

recRSV A2-L19F [2] = assay type: cell-based; details: increasing compound concentrations
RSV F protein [3] = biological target: T1, RSV F protein; assay type: cell-based; details: plasmid-based reporter assay
recRSV A2-L19F [4] = assay: microbe, parasite or virus in culture; assay type: cell-based
recRSV A2-L19F-ren = assay type: cell-based; details: GPAR-3710 added later than four hours post-infection; JMN3-003 added eight hours post-infection
[5] = test system: recRSV-L19FD489E-fireSMASh; assay type: cell-based, Respiratory Syncytial Virus; details: 10 μM; 96-well; BEAS-2B
[6] = test system: host cell metabolic activity; details: sourced compound
[7] = test system: recRSV-L19FD489E-fireSMASh; assay type: cell-based

Row | SMILES | inhibition at 0.5 µM (recRSV A2-L19F-renilla) | adaptation period until robust resistance (growth in 30 μM compound) (RSV F protein [1]; gradual adaptation to increasing compound concentrations) | reported resistance sites (RSV F protein [1]; resistance sites in the RSV F protein, identified through viral adaptation) | RSV entry rate (recRSV A2-L19F [2]) | RSV F protein-mediated membrane fusion activity (RSV F protein [3]) | active concentrations against different RSV strains (recRSV A2-L19F [4]; dose-dependent inhibition of different RSV strains) | EC50 (recRSV A2-L19F [4]; human respiratory syncytial virus, active concentration based on in vitro assays, RSV entry inhibitor) | antiviral activity in time-of-addition study (recRSV A2-L19F-ren) | hit status in co-infection validation assay with pan-resistant RSV-FD489E [5] | cytotoxicity [6] | effect on progeny virus titers ([7]; 3 μM ASV) | reduction of firefly luciferase activity ([7]; growth in the presence of 3 μM ASV)
1 | Cc1ccc(-n2c(SCC(=O)N/N=C/c3c4ccccc4cc4ccccc34)nnc2-c2ccccc2)cc1 [GPAR-3710] | > 90% | ≤ 30 days | FT400A FD401E FD486E FF488I FF488S FD489E | significant, dose-dependent reduction | specifically and potently inhibited | nano- to low micromolar range | 130 nM | essentially all antiviral activity was lost | did not emerge as hits | low cytotoxicity | – | –
2 | C=C[C@@H]1C[C@]1(NC(=O)[C@@H]1C[C@@H](Oc2ncc(OC)c3ccc(Cl)cc23)CN1C(=O)[C@@H](NC(=O)OC(C)(C)C)C(C)(C)C)C(=O)NS(=O)(=O)C1CC1 [ASV, asunaprevir] | – | – | – | – | – | – | – | – | – | – | no effect | approximately 90%
